For assay [1], the target named is T1, TRPV1 (Mus musculus, UniProt Q704Y3). It counts as cell-based, mice. On the procedure: To test the TRPV1 receptor antagonist, changes in intracellular calcium concentrations in single cells were recorded as changes in GCaMP6f fluorescence. Exposure to the antagonist (10 μM) and image analysis were performed in a manner similar to the bradykinin (BK) receptor antagonist described above. The TRPV1 receptor agonist capsaicin (1 μM) and lionfish venom were applied during 1 second over the imaging region.
T1 sequence (Q704Y3 whole entry): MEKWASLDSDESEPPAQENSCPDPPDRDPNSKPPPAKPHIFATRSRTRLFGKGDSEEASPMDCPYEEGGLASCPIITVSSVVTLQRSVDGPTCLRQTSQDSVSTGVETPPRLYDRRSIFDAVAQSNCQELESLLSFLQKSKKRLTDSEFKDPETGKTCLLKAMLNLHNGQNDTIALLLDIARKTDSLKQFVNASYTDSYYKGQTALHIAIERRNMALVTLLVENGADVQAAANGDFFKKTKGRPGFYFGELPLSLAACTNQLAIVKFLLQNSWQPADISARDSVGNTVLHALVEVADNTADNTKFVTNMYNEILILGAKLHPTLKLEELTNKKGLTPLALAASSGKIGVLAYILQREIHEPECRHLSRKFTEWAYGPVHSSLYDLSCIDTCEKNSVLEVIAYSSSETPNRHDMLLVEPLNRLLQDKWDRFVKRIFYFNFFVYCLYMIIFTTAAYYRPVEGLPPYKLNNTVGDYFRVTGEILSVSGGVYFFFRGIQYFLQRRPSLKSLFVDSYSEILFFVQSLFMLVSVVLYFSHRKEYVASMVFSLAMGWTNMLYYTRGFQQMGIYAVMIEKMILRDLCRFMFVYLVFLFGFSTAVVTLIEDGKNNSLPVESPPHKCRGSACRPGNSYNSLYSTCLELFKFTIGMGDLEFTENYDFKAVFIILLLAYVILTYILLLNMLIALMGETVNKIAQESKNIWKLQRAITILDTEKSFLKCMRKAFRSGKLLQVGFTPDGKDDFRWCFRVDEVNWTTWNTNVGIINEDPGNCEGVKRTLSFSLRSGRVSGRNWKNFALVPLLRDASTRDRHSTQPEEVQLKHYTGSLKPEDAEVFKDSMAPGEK

Assay [2] has as its target T1, TRPV1. It counts as in vivo, mice. As to conditions: 30 mg/kg intraperitoneal; 44 μg venom intraplantar; P=0.841 vs vehicle.
Procedure: Protein concentration in the venom extract was determined to be 2.2 μg/μL using the Bio-Rad DC assay. Mice (12-weeks old C57BL/6 males and females, The Jackson Laboratory) were placed in an observation chamber on a glass platform, under which a mirror was placed at a 45° angle so as to show the hind paw of the mouse to the recording videocamera. Once the mice were acclimatized to the chamber, they were taken out and injected in the ventral aspect of their left hind paw with a 20 μl solution of the crude or diluted venom (44 or 4.4 μg/20 μl). The venom was extracted in sterile physiological saline (0.9% NaCl) and the same vehicle was used for dilutions.
Assay [3] addresses T2, P2X3 (Mus musculus, UniProt Q3UR32).
T2 construct: from tissue; host or cells: living mice, hind paw (whole animal, behavioural read-out)
Nature of the assay: Spontaneous pain assay, intraplantar AF-353 before or after lionfish venom. Type of assay: in vivo, mice. The conditions noted are these: AF-353 3 mM in 20 μL intraplantar 30 minutes prior or within 2 minutes after 66 μg venom; 1 hour. The protocol:
AF-353 was prepared in a stock solution of 300 mM in DMSO and diluted to 3 mM in physiological saline for at the time of experimentation. Mice were injected with AF-353 intraplantarly either 30 minutes prior to injection of lionfish venom, to determine whether the compound could be used as a prophylactic treatment against lionfish envenomations, or immediately (within 2 minutes) after injection of lionfish venom in the paw, in order to determine whether the compound could be used as a treatment after lionfish envenomations. During the experiment, mice were placed on a glass surface with a mirror placed underneath at a 45-degree angle and kept in round Plexi-glass restrainers. A video camera filmed the animals' spontaneous pain behaviour for an hour. The amount of time the mice spent licking their paws was quantified by two independent and blinded experimenters.
Mice were injected with the vehicle (Veh) for AF-353 (DMSO) 30 minutes prior to injection of the Veh for the venom (physiological saline) (empty squares), venom (Vnm) followed by Veh (DMSO; black squares), AF-353 (AF, 3 mM in a total volume of 20 μL) followed by venom (light grey squares), or venom followed by AF-353 (dark grey squares). n=5 mice per group. The dose of venom injected was 66 μg of crude venom in a total volume of 20 μL (veh. saline). […] Stats: ***=P<0.001; **=P=0.009. Unpaired t test.

In assay [4] the target is T3, P2X3 receptors (Mus musculus, UniProt Q3UR32).
T3 construct: endogenous in cells; host or cells: primary DRG cultures of TRPV1-Cre::GCaMP6f mice
T3 sequence (Q3UR32 1-397): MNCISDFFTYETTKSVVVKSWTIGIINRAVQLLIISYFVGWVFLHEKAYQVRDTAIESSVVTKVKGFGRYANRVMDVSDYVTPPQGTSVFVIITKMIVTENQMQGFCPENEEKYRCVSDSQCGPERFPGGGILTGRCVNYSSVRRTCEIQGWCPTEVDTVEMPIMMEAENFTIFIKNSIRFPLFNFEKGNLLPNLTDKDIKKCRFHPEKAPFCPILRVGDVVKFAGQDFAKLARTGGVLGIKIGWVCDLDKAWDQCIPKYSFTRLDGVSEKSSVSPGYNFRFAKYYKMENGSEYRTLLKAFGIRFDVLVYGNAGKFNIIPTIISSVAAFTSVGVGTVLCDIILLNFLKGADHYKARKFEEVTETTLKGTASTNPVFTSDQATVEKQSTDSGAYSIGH
Type of assay: cell-based.
Procedure: Cre-dependent GCaMP6f mice (Ai95D; Jackson Labs) were crossed with TRPV1-Cre mice to express GCaMP6f in all nociceptors. In TRPV1-Cre::GCaMP6f mice, GCaMP6f expression is not limited to cells that are TRPV1-positive at maturity, because TRPV1 is expressed broadly amongst nociceptors early in development.
DRG cultures were grown on 35 mm dishes. On the 3rd day, the cultures were treated with complexes of predesigned siRNA molecules directed against mouse P2X3 or a non-targeting control siRNA (Qiagen FlexiTube siRNA final concentration 100 nM) and 2 ul of HiPerFect transfection reagent. The cells were incubated with the transfection complexes for 48 to 72 hours with addition of fresh media 24 h post-transfection.

For assay [5], the target named is T4, P2X3 receptor (Homo sapiens, UniProt P56373).
T4 construct: dorsal root ganglia were isolated from human organ donors and placed in culture; endogenous in cells; host or cells: primary sensory neurons cultured from human donor dorsal root ganglia
T4 sequence (P56373 whole entry): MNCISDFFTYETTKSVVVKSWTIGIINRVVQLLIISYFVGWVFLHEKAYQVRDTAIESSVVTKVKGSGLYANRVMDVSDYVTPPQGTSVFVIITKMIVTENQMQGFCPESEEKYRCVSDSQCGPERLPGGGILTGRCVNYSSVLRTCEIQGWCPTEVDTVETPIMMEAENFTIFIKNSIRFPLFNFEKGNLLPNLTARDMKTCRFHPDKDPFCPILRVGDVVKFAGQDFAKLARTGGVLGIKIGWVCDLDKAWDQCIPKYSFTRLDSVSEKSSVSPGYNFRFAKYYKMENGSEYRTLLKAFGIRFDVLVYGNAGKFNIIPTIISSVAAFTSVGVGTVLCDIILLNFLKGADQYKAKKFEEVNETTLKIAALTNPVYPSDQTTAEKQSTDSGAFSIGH
Nature of the assay: Calcium imaging of cultured human nociceptors exposed to lionfish venom. As to conditions: AF-353 300 nM, 8-minute incubation; p<0.001 Fisher's exact test. Type of assay: cell-based. On the procedure:
To verify the efficacy of this compound in humans, dorsal root ganglia were isolated from human organ donors and placed in culture between 3 and 5 hours after cross-clamping the heart. Sensory neurons were cultured for at least 5 days before performing any experiments to allow for satellite cell detachment. For calcium imaging experiments, human nociceptors were exposed to the lionfish venom in the presence of the P2X3 receptor antagonist AF-353 (300 nM), which was introduced in the bath solution (in mM: NaCl 150, KCl 3, Glucose 10, CaCl2) 2, and MgCl2 1; in distilled water, buffered to a pH of 7.3). Cells were incubated with AF-353 for 8-minutes either after an initial application of lionfish venom or before any applications of the venom. Venom was applied in 2-second puffs with a picospritzer as in FIG. 2.

Molecules are shown by their SMILES.

As to `COc1cc(CNC(=O)CCCC/C=C/C(C)C)ccc1O` [capsaicin], in assay [1], the “Proportion of cultured DRG neurons responding to capsaicin alone” value is recorded as 45/65.
As for `CC(C)(C)c1ccc(/C=C/C(=O)Nc2ccc3c(c2)OCCO3)cc1` [AMG-9810], in assay [1], the “Proportion of cultured DRG neurons responding to capsaicin in the presence of AMG-9810” value is recorded as 0/65 and the “effect on capsaicin-elicited rise in intracellular calcium (sample traces)” value is recorded as “blocked response”. Further, in assay [1] (AMG-9810 10 μM, Fisher exact test P=0.322), the “proportion of cells (DRG neurons) responding to the venom in the presence of AMG-9810” value is 30/32. Further, the “venom-elicited spontaneous pain behavior over 1 hour after AMG-9810 pretreatment” value in assay [2] is “independent”.
Regarding `COc1cc(C(C)C)c(Oc2cnc(N)nc2N)cc1I` [AF-353], in assay [3], the “pain caused by lionfish venom in vivo (time licking injected paw)” value is “effective in reducing or eliminating pain”. The “venom-elicited intracellular calcium responses in cultured mouse nociceptors” value in assay [4] is listed as “reversibly blocks”. Also, the “α,β,Me-ATP-elicited calcium responses in cultured mouse nociceptors” value in assay [4] (selective P2X3 receptor agonist α,β,Me-ATP) was “reversibly blocks”. Further, in assay [5], the “venom-induced calcium responses in human nociceptors” value was “do not display calcium responses”.

The record behind these values is patent US11278504B1, “Treatment of a lionfish sting and formulations for use thereof” (priority 2019, dated 2022).
